# Assay results from patent US9877949B2, “Anticancer treatment methods involving analogs and derivatives of 3-(2-substituted-ethyl) indole compounds” (TUSKEGEE UNIVERSITY, priority 2013, dated 2018).
# Values joined by “and” are separate entries in the source; they are usually repeats but may differ in a detail not shown here. Identical values can stand only once. Like-named read-outs stand apart in the source and are kept apart here.
# Experiments:
# SW480 colon cancer cells [1] = assay: MTT assay of cell viability and proliferation; format: cell-based
# Experimental: SW480 colon cancer cells were treated with solvent DMSO (CONT), staurosporine (STS)—an agent that is known to kill cancer cells—and four select indole derivative compounds. Cell viability and proliferation was examined under a MTT assay protocol. […] The control solvent is shown as in FIG. 1A as the bar corresponding to “CONT.” When treated with only the control solvent, the cancer cells are 100% viable. Yet, according to FIG. 1A, treating cancer cells with 3-(2-bromoethyl) indole reduces cancer cell viability and proliferation by about 60% within 48 hours. As noted in FIG. 1A, 3-(2-bromoethyl) indole is represented by “INDOLE 9.” By comparison, a similar concentration of indole-3-carbinol reduces cell proliferation only by about 30%. As noted in FIG. 1A, indole-3-carbinol is represented by “INDOLE 14.”
# SW480 colon cancer cells [2] = assay: Microscopic evaluation of cell proliferation; format: cell-based; settings: SW480, 25 μM, 24 and 48 hours
# Experimental: (§1) SW480 colon cancer cells were treated with either vehicle control (DMSO) or 25 μM 3-(2-bromoethyl) indole. […] By comparison, vehicle-treated cells rapidly proliferated and visibly filled the surface on which they were seeded. Microphotographs were taken 24 hours (a and c) and 48 hours (b and d) after the treatments. […] To further examine the possibility of inhibited cell proliferation, cell cycle analysis was performed by flow cytometry on cells that were treated with 50 μM 3-(2-bromoethyl) indole for 24 and 48 hours. […] In fact, the specific effect of treating cells with 3-(2-bromoethyl) was to “freeze” the cell growth during treatment. This is illustrated in FIG. 3.
# Increasing concentrations of 3-(2-bromoethyl) indole (from 12.5 μM to 100 μM) were tested on SW480 colon cancer cells, and viability of the treated cells was measured by the CellTiter-Glo® (Promega® Corporation) method. […] Similarly, dose response examination and cell cycle analysis using variable concentrations of 3-(2-bromoethyl) indole ranging from 12.5 to 100 μM confirms that even doses lower than 50 μM inhibit cell proliferation. […]
# SW480 cancer cells = assay: Cell cycle analysis by flow cytometry; format: cell-based
# Experimental: as §1
# (§2) Increasing concentrations of 3-(2-bromoethyl) indole (from 12.5 μM to 100 μM) were tested on SW480 colon cancer cells, and viability of the treated cells was measured by the CellTiter-Glo® (Promega® Corporation) method. […] Similarly, dose response examination and cell cycle analysis using variable concentrations of 3-(2-bromoethyl) indole ranging from 12.5 to 100 μM confirms that even doses lower than 50 μM inhibit cell proliferation. Thus, useful embodiments of the present invention provide for a method of inhibiting cancer cell proliferation, comprising treating the cancer cells with 3-(2-bromoethyl) indole with concentrations of greater than or equal to 0.2 μM, or in a range of 1.0 μM to 50.0 μM, or more specifically, from 5.0 μM to 25.0 μM.
# It was also examined by flow cytometry whether the combination of CPT and BEI-9 would induce cell apoptosis as measured by accumulation of sub-G1 population. […] Referring to FIG. 17, cell cycle profiles of parental SW480 cells treated with DMSO (a), BEI-9 (b), CPT (c), BEI-9 and CPT co-treatment (d) or 24 hours of CPT followed by 24 hours of only BEI-9 (e) are shown. The short arrow points to the sub-G1 population of cells resulting from the combination treatment.
# SW480 colon cancer cells [3] = assay: CellTiter-Glo cell viability; format: cell-based; settings: Homo sapiens; SW480, 12.5 μM; read-out: reduction in cell viability
# Experimental: as §2
# HCT116 cells [4] = assay: MTS assay viability index; format: cell-based; settings: HCT116, variable concentrations
# Experimental: (§3) The activity of 3-(2-bromoethyl) indole on another colon cancer cell line, HCT116, was also tested. […] The absorbance reading at a wavelength of 490 nm is shown on the Y-axis.
# HCT116 cells [5] = assay: Microphotograph dose response of proliferation; format: cell-based; settings: 5 μM and 10 μM
# Experimental: as §3
# SW480 cells [6] = assay: Scratch wound healing assay; format: cell-based; settings: SW480, 25 μM, up to 96 hours
# Experimental: Scratch wound healing assay was performed on SW480 cells grown to confluence. Confluent SW480 cells were scratched with a pipette tip to create cell wounds, which were treated with vehicle control solvent (DMSO) and 25 μM 3-(2-bromoethyl) indole. The ability of the cells to migrate and fill the gap created by the scratch was evaluated. […] By comparison, vehicle-treated cells filled the scratch within 96 hours. […] The ability of the cells to migrate and fill the gap was followed by light microscopy imaging at 24-hour intervals. […] The scratch wound is most visible as a clear space at t0. […] Only a few single cells treated with 3-(2-bromoethyl) indole were visible and scattered in the gap. Moreover, there was no evidence of cell division.
# SW480 colon cancer cells [7] = assay: Recovery after wash-out of compound; format: cell-based; settings: SW480, 25 μM for 48 hours, then four days in fresh medium
# Experimental: To examine if treated cells would recover after the compound was washed out, SW480 colon cancer cells were treated with 25 μM 3-(2-bromoethyl) indole for 48 hours, then the monolayer was rinsed 3 times with culture medium to remove the compound. The cell monolayers were left in the fresh growth medium for four days of further incubation. Results shown in FIG. 10 reveal that the vehicle-treated SW480 cells rapidly grew to full confluency in just 48 hours.
# cyclin D1 = assay: Immunoblotting of cyclin D1 protein level; format: cell-based; settings: SW480, immunoblotting
# Experimental: (§4) Progression through the cell cycle is regulated by cyclins and their enzyme partner, cyclin dependent kinases (CDK). The regulation of the cyclin-CDK pair activity is controlled by synthesis and degradation of the cyclin moiety. Cyclin D1 is one of the regulatory cyclins involved in the G1-S transition of cells, and is a known oncogene. As cyclin D1 is a key regulator of cell cycle progression, levels of cyclin D1 protein in both control cells and treated cells were assessed by immunoblotting. Also assessed were the levels of cyclin A, another cyclin regulating both G1-S as well as G2-M transitions. […] Accordingly, inhibiting the expression of cyclins likely contributes to the observed “freezing” effect described previously.
# cyclin A = assay: Immunoblotting of cyclin A protein level; format: cell-based; settings: SW480, immunoblotting
# Experimental: as §4
# NF-kB [8] = assay: NF-kB luciferase reporter assay in SW480-NFL cells; format: cell-based
# From the text: One of the regulators of cyclin D1 is the multifunctional transcription factor NF-kB. The effect of 3-(2-bromoethyl) indole on NF-kB signaling was also examined. […] In carrying out the test, NF-kB reporter SW480 cells (SW-NFL) were used. The cells were stably transduced with a construct containing NF-kB-response elements linked to the luciferase gene as the reporter. Previous work has shown that these cells activate NF-kB in response to TNFα, as well as some clinically used chemotherapeutic drugs. As an experimental response to NF-kB activation, these cells express increased amounts of luciferase enzyme, which can be detected by luminescence assay.
# First, the effect of 3-(2-bromoethyl) indole and each of the thirteen other indole compounds on the basal levels of luciferase activity was assessed. An equal number of SW480-NFL cells seeded in a 96-well plate were treated with control vehicle (DMSO) or one of the fourteen indole-derivative test compounds. Luciferase enzyme activity was measured 24 hours after the treatment. […] See FIG. 12, where BEI-9 is the 9th indole test sample depicted in the graph.
# (§5) Second, it was determined whether cytokine-induced NF-kB activation can be blocked by 3-(2-bromoethyl) indole. In prior studies, SW480-NFL cells were tested and confirmed as being responsive to TNFα, a canonical NF-kB pathway inducer, and various clinical chemotherapeutic drugs. To this end, TNFα was first used to activate NF-kB in these reporter cells. It was examined whether co-treatment would interfere with activation of the NF-kB pathway. SW480-NFL cells were treated with 25 ng/ml TNFα as an activator, and with 0.5 μM, 5 μM, or 10 μM BEI-9 as test compound. […] The effect of such a combination treatment is shown in the […] microphotograph in FIG. 14. Referring to FIG. 14, microphotographs were taken of SW480 cells treated with vehicle control (DMSO) (top left), 25 ng/ml TNFα (top right), 5 μM 3-(2-bromoethyl) indole (bottom left), and a combination of 25 ng/ml TNFα and 5 μM 3-(2-bromoethyl) indole (bottom right). Accordingly, in addition to inhibiting NF-kB activation, the addition of 3-(2-bromoethyl) indole to TNFα treated cells may divert TNF receptor-initiated receptor signaling towards apoptosis.
# In prior art, it has been shown that camptothecin (also referred to herein as “CPT”), one of adjuvant drugs clinically used to treat various types of cancers, activates NF-kB in SW480 reporter cells at peak activating concentrations of 0.5 μM or 1.0 μM. The consequence of NF-kB activation as a result of treatment with adjuvant chemotherapy drugs is still under study. To examine whether a combination of CPT with BEI-9 suppresses a drug-induced NF-kB response in SW480 reporter cells, such cells were treated with 0.5 μM CPT and varying concentrations (0.2 μM-12.5 μM) of BEI-9.
# luciferase [9] = biological target: T1, luciferase (Photinus pyralis, UniProt P08659); format: cell-based; settings: HepG2 PXR-luciferase, 10 μM added five minutes before measuring
# T1 construct: expressed in transfected cells; host or cells: HepG2
# Experimental: (§6) Luciferase reporter assays are dependent on the activity of the luciferase enzyme to catalyze the conversion of luciferin to oxyluciferin in the presence of ATP and oxygen, generating light in the process. Therefore, compounds that may directly interfere with the enzyme activity should be distinguished from those that inhibit the signaling activity reported inside the cells. To test this, a PXR-luciferase reporter system expressed in HepG2 cells was used and a luciferase assay was performed by adding 10 μM BEI-9 to the cells five minutes before measuring luciferase catalyzed reactions. In parallel, ATP-dependent cell viability was also measured using a CellTiter-Glo® kit to examine if BEI-9 would compete with cellular ATP, which is required for the luciferase activity.
# luciferase [10] = assay: ATP-dependent cell viability with CellTiter-Glo kit, competition with cellular ATP; format: cell-based; settings: 10 μM
# Experimental: as §6
# SW480 cells [11] = assay: Microphotographs of cells for signs of apoptosis (membrane blebs); format: cell-based; settings: for sign of cell apoptosis, single agent: SW480, 25 ng/ml TNFα alone or 5 μM 3-(2-bromoethyl) indole alone
# Experimental: Microphotographs were taken of SW480 cells treated with vehicle control (DMSO) (top left), 25 ng/ml TNFα (top right), 5 μM 3-(2-bromoethyl) indole (bottom left), and a combination of 25 ng/ml TNFα and 5 μM 3-(2-bromoethyl) indole (bottom right).
# as §5
# NF-kB [12] = settings: SW480 reporter cells; cited from earlier work
# T1 sequence (P08659 whole entry, species assumed): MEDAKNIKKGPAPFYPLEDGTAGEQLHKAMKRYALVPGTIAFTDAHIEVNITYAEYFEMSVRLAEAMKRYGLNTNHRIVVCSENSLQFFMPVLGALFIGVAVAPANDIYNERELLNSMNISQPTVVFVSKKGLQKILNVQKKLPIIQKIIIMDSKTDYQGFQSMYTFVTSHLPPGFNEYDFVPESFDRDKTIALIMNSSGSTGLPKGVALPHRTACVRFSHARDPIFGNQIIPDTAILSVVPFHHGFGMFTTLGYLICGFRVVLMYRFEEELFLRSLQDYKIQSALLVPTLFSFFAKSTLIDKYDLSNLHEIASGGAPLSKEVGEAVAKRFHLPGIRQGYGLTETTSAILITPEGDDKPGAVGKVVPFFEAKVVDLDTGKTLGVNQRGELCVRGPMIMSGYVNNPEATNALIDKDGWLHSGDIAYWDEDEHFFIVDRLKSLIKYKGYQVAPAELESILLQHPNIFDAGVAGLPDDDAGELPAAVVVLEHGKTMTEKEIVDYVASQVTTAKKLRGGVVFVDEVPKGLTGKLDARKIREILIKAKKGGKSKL
compound,measurement,setting,value
BrCCc1c[nH]c2ccccc12 [3-(2-bromoethyl) indole],reduction of cancer cell viability and proliferation,"SW480 colon cancer cells [1]; SW480, within 48 hours, relative to control solvent DMSO",about 60%
same,cell proliferation by microscopic evaluation,SW480 colon cancer cells [2],failed to multiply
same,"cell cycle profile, proliferation","SW480 cancer cells; SW480, 50 μM, 24 and 48 hours",effectively prevents proliferation
same,induction of sub-G1 population indicative of apoptosis,"SW480 cancer cells; SW480, 24 and 48 hours after treatment",no apparent induction of sub-G1 population
same,"apoptosis as accumulation of sub-G1 population, sequential treatment","SW480 cancer cells; SW480, CPT for 24 hours followed by BEI-9 for 24 hours",appearance of a distinct sub-G1 population
same,doses that inhibit cell proliferation,"SW480 cancer cells; SW480, dose response examination and cell cycle analysis, 12.5 to 100 μM",lower than 50 μM
same,"apoptosis as accumulation of sub-G1 population, co-treatment of CPT and BEI-9","SW480 cancer cells; SW480, flow cytometry",did not induce apoptosis
same,"apoptosis as accumulation of sub-G1 population, single agent","SW480 cancer cells; SW480, flow cytometry",did not induce apoptosis
same,cell death in cell cycle analysis,"SW480 cancer cells; SW480, highest concentration tested 100 μM",Cell death is noticed
same,cytotoxicity at 12.5 µM,SW480 colon cancer cells [3],~50%
same,viability index (absorbance 490 nm),HCT116 cells [4],decreased the viability index
same,proliferation of HCT116 cells,HCT116 cells [5],completely stopped the proliferation
same,"motility, ability to migrate and fill the wound gap",SW480 cells [6],markedly inhibited the motility
same,recovery of cells after wash-out,SW480 colon cancer cells [7],not able to recover at all
same,expression of cyclin D1 protein,cyclin D1,drastically decreased
same,expression of cyclin A protein,cyclin A,drastically decreased
same,difference between the effects of 0.5 μM and 5 μM on TNFα-activated NF-kB reporter,"NF-kB [8]; SW480-NFL, 25 ng/ml TNFα",over 10 fold
same,activation of NF-kB reporter activity by TNFα,"NF-kB [8]; SW480-NFL, 25 ng/ml TNFα, 5 μM or 10 μM compound",completely abolished
same,basal luciferase reporter activity,"NF-kB [8]; SW480-NFL, 24 hours after treatment",reduced the reporter activity
same,effect on CPT-induced NF-kB reporter activity,"NF-kB [8]; SW480 reporter cells, 0.5 μM CPT, 0.2 μM BEI-9",did not have any noticeable effect
same,inhibition of CPT-induced NF-kB response,"NF-kB [8]; SW480 reporter cells, 0.5 μM CPT, BEI-9 concentrations greater than 0.8 μM, versus CPT-only",more than 50%
same,direct inhibition of luciferase,luciferase [9],does not inhibit luciferase
same,inhibition of luciferase by competing with cellular ATP,luciferase [10],does not inhibit luciferase
same,"sign of cell apoptosis, single agent",SW480 cells [11],fails to indicate any sign of cell apoptosis
same,"sign of cell apoptosis, combination with TNFα","SW480 cells [11]; SW480, 5 μM compound combined with 25 ng/ml TNFα",appearance of cells with membrane blebs
"COc1ccc2[nH]ccc2c1 [5-methoxyindole, reference compound]",expression of cyclin D1 protein,cyclin D1,did not exhibit the same beneficial effects
same,expression of cyclin A protein,cyclin A,did not exhibit the same beneficial effects
CC[C@@]1(O)C(=O)OCc2c1cc1n(c2=O)Cc2cc3ccccc3nc2-1 [camptothecin],"apoptosis as accumulation of sub-G1 population, single agent","SW480 cancer cells; SW480, flow cytometry",did not induce apoptosis
same,peak activating concentrations for NF-kB activation,NF-kB [12],0.5 µM and 1.0 µM
"OCc1c[nH]c2ccccc12 [indole-3-carbinol, reference compound]",reduction of cancer cell viability and proliferation,SW480 colon cancer cells [1],about 30%
TNFα,"sign of cell apoptosis, single agent",SW480 cells [11],fails to indicate any sign of cell apoptosis
